Source: patent publication US8618144B2, “Pyrrolidine-derived beta 3 adrenergic receptor agonists” (Merck Sharp & Dohme Corp, priority 2009, dated 2013)
Counter-ions that a name gives are not always drawn.

biological target: T1, human β3 adrenergic receptor (Homo sapiens, UniProt P13945); test: Functional Assay: cAMP production in CHO cells stably transfected with cloned β3-adrenergic receptor (LANCE); assay type: cell-based; conditions: CHO cells expressing β3 receptor, range classes, read-out: Human β3 EC50
T1 construct: expressed in transfected cells; host or cells: Chinese hamster ovary (CHO) cells, stably transfected
Protocol: Functional Assay: cAMP production in response to ligand is measured according to Barton et al (1991, Agonist-induced desensitization of D2 dopamine receptors in human Y-79 retinoblastoma cells. Mol. Pharmacol. […]) modified as follows. cAMP production is measured using a homogenous time-resolved fluorescence resonance energy transfer immunoassay (LANCE™, Perkin Elmer) according to the manufacture's instructions. Chinese hamster ovary (CHO) cells, stably transfected with the cloned β-adrenergic receptor (β1, β2 or β3) are harvested after 3 days of subculturing. Harvesting of cells is done with Enzyme-free Dissociation Media (Specialty Media). Cells are then counted and resuspended in assay buffer (Hank's Balanced salt solution supplemented with 5 mM HEPES, 0.1% BSA) containing a phosphodiesterase inhibitor (IBMX, 0.6 mM). The reaction is initiated by mixing 6,000 cells in 6 μL with 6 μL Alexa Fluor labeled cAMP antibody (LANCE™ kit) which is then added to an assay well containing 12 ul of compound (diluted in assay buffer to 2× final concentration). The reaction proceeds for 30 minutes at room temperature and is terminated by the addition of 24 μL detection buffer (LANCE™ kit). The assay plate is then incubated for 1 hour at room temperature and time-resolved fluorescence measured on a Perkin Elmer Envision reader or equivalent. The unknown cAMP level is determined by comparing fluorescence levels to a cAMP standard curve.
The non-selective, full agonist β-adrenergic ligand isoproterenol is used at all three receptors to determine maximal stimulation. The human β3 adrenergic receptor (AR) selective ligand (S)—N-[4-[2-[[2-hydroxy-3-(4-hydroxyphenoxy)propyl]amino]ethyl]-phenyl]-4-iodobenzenesulfonamide is used as a control in all assays. Isoproterenol is titrated at a final concentration in the assay of 10^−10 M to 10^−5 M and the selective ligand (S)—N-[4-[2-[[2-hydroxy-3-(4-hydroxyphenoxy)propyl]amino]ethyl]phenyl]-4-iodobenzenesulfonamide is titrated at the β3 receptor at concentration of 10^−10 M to 10^−5 M. Unknown ligands are titrated at all 3β-adrenergic receptor subtypes at a final concentration in the assay of 10^−10 M to 10^−5 M to determine the EC50. The EC50 is defined as the concentration of compound that gives 50% activation of its own maximum. Data are analyzed using Microsoft Excel and Graphpad Prism or an internally developed data analysis software package.

T1 sequence (P13945 whole entry): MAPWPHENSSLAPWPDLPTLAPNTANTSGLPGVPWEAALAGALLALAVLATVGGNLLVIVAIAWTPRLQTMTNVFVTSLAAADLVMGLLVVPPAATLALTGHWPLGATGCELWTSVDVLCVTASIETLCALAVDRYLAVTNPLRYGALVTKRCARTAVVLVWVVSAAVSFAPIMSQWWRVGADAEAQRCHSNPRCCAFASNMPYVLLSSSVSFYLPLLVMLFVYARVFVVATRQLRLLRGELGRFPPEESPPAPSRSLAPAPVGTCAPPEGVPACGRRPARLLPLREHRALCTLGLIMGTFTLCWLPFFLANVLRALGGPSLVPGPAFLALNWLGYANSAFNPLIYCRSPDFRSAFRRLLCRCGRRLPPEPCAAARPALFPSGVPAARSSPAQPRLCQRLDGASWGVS

`Cc1csc(CC(=O)Nc2ccc(C[C@@H]3CC[C@H]([C@H](O)COc4ccccc4)N3)cc2)n1` [Example 3] and `Cc1nc(CC(=O)Nc2ccc(C[C@@H]3CC[C@H]([C@H](O)COc4ccccc4)N3)cc2)c(C)s1` [Example 5] fall in the same range of EC50: 1 to 10 nM for the first, 1 to 10 nM for the second.

Work on `O=C(Cc1nnc(-c2ccccc2)[nH]1)Nc1ccc(C[C@@H]2CC[C@H]([C@H](O)COc3ccccc3)N2)cc1` [Example 6] yielded an EC50 of under 1 nM.

same assay, conditions: CHO cells expressing β3 receptor, read-out: human β3 functional activity (EC50)

First: Nc1nc(CC(=O)Nc2ccc(C[C@@H]3CC[C@H]([C@H](O)COc4ccccc4)N3)cc2)cs1 [Example 1, 2-(2-Amino-1,3-thiazol-4-yl)-N-[4-({(2S,5R)-5-[(1S)-1-hydroxy-2-phenoxyethyl]pyrrolidin-2-yl}methyl)phenyl]acetamide bis-trifluoroacetate salt]
Second: Nc1nc(CC(=O)Nc2ccc(C[C@H]3CC[C@H]([C@H](O)COc4ccccc4)N3)cc2)cs1 [Example 11, 2-(2-Amino-1,3-thiazol-4-yl)-N-[4-({(2R,5R)-5-[(1S)-1-hydroxy-2-phenoxyethyl]pyrrolidin-2-yl}methyl)phenyl]acetamide bis trifluoroacetate salt]
The EC50 of the first is lower: under 1 nM for the first, 100 to 1000 nM for the second. The first is the more potent here.

`O=S(=O)(Nc1ccc(C[C@@H]2CC[C@H]([C@H](O)COc3ccccc3)N2)cc1)c1ccc(-c2nc(-c3ccc(C(F)(F)F)cc3)cs2)cc1` [Example 12, N-[4-({(2S,5R)-5-[(1S)-1-Hydroxy-2-phenoxyethyl]pyrrolidin-2-yl}methyl)phenyl]-4-{4-[4-(trifluoromethyl)phenyl]-1,3-thiazol-2-yl}benzenesulfonamide trifluoroacetate salt] and `O=S(=O)(Nc1ccc(C[C@@H]2CC[C@H]([C@H](O)COc3ccccc3)N2)cc1)c1ccc(I)cc1` [Example 13] cannot be ordered by EC50: under 10 nM for the first, under 10 nM for the second.

`CCCCCCNC(=O)Nc1ccc(S(=O)(=O)Nc2ccc(C[C@@H]3CC[C@H]([C@H](O)COc4ccccc4)N3)cc2)cc1` [Example 14, 4-{[(Hexylamino)carbonyl]amino}-N-[4-({(2S,5R)-5-[(1S)-1-hydroxy-2-phenoxyethyl]pyrrolidin-2-yl}methyl)phenyl]benzenesulfonamide trifluoroacetate salt] and `Nc1ncn(CC(=O)Nc2ccc(C[C@@H]3CC[C@H]([C@H](O)COc4ccccc4)N3)cc2)n1` [Example 15, 2-(3-Amino-1H-1,2,4-triazol-1-yl)-N-[4-({(2S,5R)-5-[(1S)-1-hydroxy-2-phenoxyethyl]pyrrolidin-2-yl}methyl)phenyl]acetamide trifluoroacetate salt] cannot be ordered by EC50: under 1 nM for the first, under 1 nM for the second.
